In patent US4885310A, “Anti-fungal methods and agent” (Kern; Gerald N., priority 1985, dated 1989):

Legend:
[1] = tested on: mycoses; details: cited from earlier work
[2] = tested on: MA-104; assay: Cytotoxicity of docusate sodium in solutions free of serum, MA-104; type: cell-based, monkey; set-up: key: 0: Cells had normal morphology; 4+: > 90% of cells showed CTE; details: 24 h, 37° C.
Procedure: (§1) The cell lines used to evaluate cytotoxicity of docusate sodium were MA-104 derived from monkey kidneys, HeLa derived from human uterine carcinoma and primary fibroblasts from human foreskin. The cells were grown to confluency in 60×15 mm dishes. The cell monolayers were washed free of growth medium and 5 ml of serum-less growth medium containing docusate sodium at various concentrations was added. The cultures were incubated 24 hours at 37° C. and the cells then examined microscopically for cytotoxic effects (CTE). Controls were done in the same manner except that they were not exposed to docusate sodium.
(§2) Table 1 lists the cytotoxicity of docusate sodium with regard to selected cell lines in cell culture.

[3] = tested on: HeLa; assay: Cytotoxicity of docusate sodium in solutions free of serum, HeLa; type: cell-based, human; set-up: key: 0: Cells had normal morphology; 4+: > 90% of cells showed CTE; details: 24 h, 37° C.
Procedure: as §1, §2

[4] = tested on: primary fibroblasts from human foreskin; assay: Cytotoxicity of docusate sodium in solutions free of serum, foreskin fibroblasts; type: cell-based; set-up: key: 0: Cells had normal morphology; 4+: > 90% of cells showed CTE; details: 24 h, 37° C.
Procedure: as §1, §2

[5] = tested on: MA-104; assay: Cytotoxicity of docusate sodium in solutions containing serum, MA-104; type: cell-based, monkey; set-up: key to cytotoxic effect (CTE): 0: Cells have normal morphology; 4+: > 90% of cells showed CTE.; ±c: less than 10% of cells showed CTE; details: for cytotoxic effect (CTE): 24 h, MA-104
Procedure: as §1
(§3) The same procedure that was used for Example 8 was used for this example except that the medium used for growing the cells contained 2% by volume fetal calf serum.
(§4) Table 2 lists the cytotoxic effect of docusate sodium at various concentrations in selected cell lines in the cell cultures of this Example.

[6] = tested on: HeLa; assay: Cytotoxicity of docusate sodium in solutions containing serum, HeLa; type: cell-based, human; set-up: key: 0: Cells have normal morphology; 4+: > 90% of cells showed CTE.; ±c: less than 10% of cells showed CTE; details: 2% fetal calf serum, 24 h
Procedure: as §1, §3, §4

[7] = tested on: foreskin fibroblast cells; assay: Cytotoxicity of docusate sodium in solutions containing serum, foreskin fibroblasts; type: cell-based, human; set-up: key: 0: Cells have normal morphology; 4+: > 90% of cells showed CTE.; ±c: less than 10% of cells showed CTE; details: 2% fetal calf serum, 24 h
Procedure: as §1, §3, §4

[8] = tested on: Candida albicans; assay: Inhibition of the growth of Candida albicans in broth culture; type: cell-based; details: TSB, 30° C.
Procedure: Candida albicans is a yeast and is the causative agent of thrush in humans and is a cause of vaginal infections, urinary tract infections, and infections at other body sites. The growth inhibition effects of docusate sodium on C. albicans are determined in broth culture using trypticase soy broth (TSB) which is a medium which supports growth of a wide variety of microorganisms. TSB was sterilized by autoclaving and filter sterilized docusate sodium in distilled water was added to the sterile TSB at the concentrations shown in Table 3. The cultures were inoculated and incubated at 30° C. for 72 hours. Growth in the cultures was checked at 24 hour intervals.

[9] = tested on: Scopulariopsis; assay: Inhibition of fungal growth on potato dextrose agar plates, Scopulariopsis; type: cell-based
Procedure: (§5) FIG. 1 is a photograph of fungal cultures of Scopulariopsis, Penicillium and Aspergillus treated with various concentrations of docusate sodium from 0 concentration (the control) to 2.0 mg/ml and incubated for five days at room temperature. The nature of fungal growth required that a different experimental approach from that of Example 10 be used to determine the growth inhibition effects of docusate sodium on fungi. For these experiments potato dextrose agar plates containing different concentrations of docusate sodium were inoculated in the center of the agar with Scopulariopsis, Penicillium and Aspergillus. The cultures were then sealed with […] brand film and incubated at room temperature for five days. Since growth could not be measured by absorbance visual comparisons were made. […] Similar tests were conducted with Mucor.

[10] = tested on: Penicillium; assay: Inhibition of fungal growth on potato dextrose agar plates, Penicillium; type: cell-based
Procedure: as §5

[11] = tested on: Aspergillus; assay: Inhibition of fungal growth on potato dextrose agar plates, Aspergillus; type: cell-based
Procedure: as §5

[12] = tested on: Mucor; assay: Inhibition of fungal growth, Mucor; type: cell-based; details: all concentrations tested
Procedure: The nature of fungal growth required that a different experimental approach from that of Example 10 be used to determine the growth inhibition effects of docusate sodium on fungi. For these experiments potato dextrose agar plates containing different concentrations of docusate sodium were inoculated in the center of the agar with Scopulariopsis, Penicillium and Aspergillus. The cultures were then sealed with PARAFILM brand film and incubated at room temperature for five days. Since growth could not be measured by absorbance visual comparisons were made. […] The results to date indicate that docusate sodium is fungistatic. […] Similar tests were conducted with Mucor.

[13] = cited from earlier work
[14] = use as food additive and stool softening agent; cited from earlier work

## C[C@@H]1[C@H](O)[C@@H](C)/C=C/C=C/C=C/C=C/C=C/C=C/C=C/[C@H](O[C@@H]2O[C@H](C)[C@@H](O)[C@H](N)[C@@H]2O)C[C@@H]2O[C@](O)(C[C@@H](O)C[C@@H](O)[C@H](O)CC[C@@H](O)C[C@@H](O)CC(=O)O[C@H]1C)C[C@H](O)[C@H]2C(=O)O [amphotericin B]
[1]; in vivo
  toxicity: often exhibits some toxicity
[1]; superficial and cutaneous mycoses
  effectiveness against superficial and cutaneous mycoses: not effective for the treatment of superficial and cutaneous mycoses
[1]; systemic mycoses
  effectiveness against systemic mycoses: effective for the treatment of many, but not all, systemic mycoses

## CCCCC(CC)COC(=O)CC(C(=O)OCC(CC)CCCC)S(=O)(=O)O (centres unmarked) [docusate sodium, 1,4 bis(2-ethylhexyl) sodium sulfosuccinate]
[2]; 0.01 mg/ml
  toxicity (CTE): 0
[2]; 0.05 mg/ml
  toxicity (CTE): 4+ (> 90% of cells showed CTE.)
[2]; 0.1 mg/ml
  toxicity (CTE): 4+ (> 90% of cells showed CTE.)
[2]; 0.2 mg/ml
  toxicity (CTE): 4+ (> 90% of cells showed CTE.)
[3]; 0.01 mg/ml
  toxicity (CTE): 0
[3]; 0.05 mg/ml
  toxicity (CTE): 4+ (> 90% of cells showed CTE.)
[3]; 0.1 mg/ml
  toxicity (CTE): 4+ (> 90% of cells showed CTE.)
[3]; 0.2 mg/ml
  toxicity (CTE): 4+ (> 90% of cells showed CTE.)
[4]; 0.01 mg/ml
  toxicity (CTE): 0
[4]; 0.05 mg/ml
  toxicity (CTE): 4+ (> 90% of cells showed CTE.)
[4]; 0.1 mg/ml
  toxicity (CTE): 4+ (> 90% of cells showed CTE.)
[4]; 0.2 mg/ml
  toxicity (CTE): 4+ (> 90% of cells showed CTE.)
[5]; 0.01 mg/ml, 2% fetal calf serum
  cytotoxic effect (CTE): 0
[5]; 0.02 mg/ml, 2% fetal calf serum
  cytotoxic effect (CTE): 0
[5]; 0.03 mg/ml, 2% fetal calf serum
  cytotoxic effect (CTE): 0
[5]; 0.04 mg/ml, 2% fetal calf serum
  cytotoxic effect (CTE): 0
[5]; 2% fetal calf serum vs serum-free, stated for the cells of Table 2
  effect of serum on cytotoxicity: presence of serum reduced the cytotoxicity
[5]; 2% fetal calf serum, versus HeLa and foreskin fibroblast cells
  relative sensitivity of MA-104 cells: less sensitive
[6]; 0.02 mg/ml
  cytotoxic effect (CTE): 0
[6]; 0.03 mg/ml
  cytotoxic effect (CTE): ±c (less than 10% of cells showed CTE.)
[6]; 0.04 mg/ml
  cytotoxic effect (CTE): 4+ (> 90% of cells showed CTE.)
[7]; 0.01 mg/ml
  cytotoxic effect (CTE): 0
[7]; 0.02 mg/ml
  cytotoxic effect (CTE): ±c (less than 10% of cells showed CTE.)
[7]; 0.03 mg/ml
  cytotoxic effect (CTE): 4+ (> 90% of cells showed CTE.)
[7]; 0.04 mg/ml
  cytotoxic effect (CTE): 4+ (> 90% of cells showed CTE.)
[8]; 0.06 mg/ml, 0 h
  Growth recorded as absorbance at 540 nm: 0.185
[8]; 0.06 mg/ml, 24 h
  Growth recorded as absorbance at 540 nm: 0.610
[8]; 0.06 mg/ml, 48 h
  Growth recorded as absorbance at 540 nm: 1.10
[8]; 0.06 mg/ml, 72 h
  Growth recorded as absorbance at 540 nm: 0.920
[8]; 0.12 mg/ml, 0 h
  Growth recorded as absorbance at 540 nm: 0.230
[8]; 0.12 mg/ml, 24 h
  Growth recorded as absorbance at 540 nm: 0.440
[8]; 0.12 mg/ml, 48 h
  Growth recorded as absorbance at 540 nm: 0.700
[8]; 0.12 mg/ml, 72 h
  Growth recorded as absorbance at 540 nm: 0.950
[8]; 0.25 mg/ml, 0 h
  Growth recorded as absorbance at 540 nm: 0.220
[8]; 0.25 mg/ml, 24 h
  Growth recorded as absorbance at 540 nm: 0.345
[8]; 0.25 mg/ml, 48 h
  Growth recorded as absorbance at 540 nm: 0.600
[8]; 0.25 mg/ml, 72 h
  Growth recorded as absorbance at 540 nm: 0.720
[8]; 0.5 mg/ml, 0 h
  Growth recorded as absorbance at 540 nm: 0.240
[8]; 0.5 mg/ml, 24 h
  Growth recorded as absorbance at 540 nm: 0.315
[8]; 0.5 mg/ml, 48 h
  Growth recorded as absorbance at 540 nm: 0.420
[8]; 0.5 mg/ml, 72 h
  Growth recorded as absorbance at 540 nm: 0.730
[8]; 1.0 mg/ml, 0 h
  Growth recorded as absorbance at 540 nm: 0.290
[8]; 1.0 mg/ml, 24 h
  Growth recorded as absorbance at 540 nm: 0.310
[8]; 1.0 mg/ml, 48 h
  Growth recorded as absorbance at 540 nm: 0.450
[8]; 1.0 mg/ml, 72 h
  Growth recorded as absorbance at 540 nm: 0.610
[8]; 2.0 mg/ml, 0 h
  Growth recorded as absorbance at 540 nm: 0.320
[8]; 2.0 mg/ml, 24 h
  Growth recorded as absorbance at 540 nm: 0.470
[8]; 2.0 mg/ml, 48 h
  Growth recorded as absorbance at 540 nm: 0.620
[8]; 2.0 mg/ml, 72 h
  Growth recorded as absorbance at 540 nm: 0.780
[9]; Scopulariopsis versus Penicillium
  relative sensitivity of fungus: more sensitive
[9]; all concentrations up to 2.0 mg/ml, five days, room temperature, Scopulariopsis
  growth inhibition: growth of fungi was inhibited at all concentrations
[9]; stated for the fungal colonies of FIG. 1
  sensitivity of growing tips of fungal mycelia (microscopic examination): growing tips of the fungal mycelia (filaments) are sensitive
[9]; stated for the fungi of FIG. 1
  fungistatic nature of effect: fungistatic
[10]; Penicillium versus Aspergillus and Scopulariopsis
  relative sensitivity of fungus: least sensitive
[10]; all concentrations up to 2.0 mg/ml, five days, room temperature, Penicillium
  growth inhibition: growth of fungi was inhibited at all concentrations
[11]; Aspergillus versus Penicillium
  relative sensitivity of fungus: more sensitive
[11]; all concentrations up to 2.0 mg/ml, five days, room temperature, Aspergillus
  growth inhibition: growth of fungi was inhibited at all concentrations
[12]
  growth inhibition: growth was inhibited at all concentrations of docusate sodium tested
[13]; organic solvents such as alcohol
  solubility in organic solvents: freely soluble
[13]; water
  solubility in water: slowly soluble in water to a limited extent
[14]
  systemic or local concentration on a cellular level: do not provide a systemic or local concentration of from about 0.01 mg to about 0.2 mg of docusate sodium per ml on a cellular level

## COC1=CC(=O)C[C@@H](C)[C@]12Oc1c(Cl)c(OC)cc(OC)c1C2=O [griseofulvin]
[1]; requires prolonged administration of weeks or months
  effectiveness against mycoses: effective only for superficial and subcutaneous mycoses
